{
  "source": "patent US20110207751A1",
  "about": "“HETEROCYCLIC COMPOUNDS AND USES AS ANTICANCER AGENTS” (priority 2010, published 2011)",
  "key": {"[1]": {"test_system": "KB200 cells over-expressing multiple drug resistant (MDR) gene", "assay": "Inhibition of cell proliferation, xCelligence cell index", "assay_type": "cell-based", "settings": "Homo sapiens, 72 hr post compound treatment, read-out: calculated IC50", "quoted_text": "(§2) The biological activity of compounds disclosed herein was monitored and profiled using the Real-Time Cell Electronic Sensing (RT-CES®) system from ACEA Biosciences, Inc. The RT-CES system utilizes cell-substrate impedance technology to monitor cellular behavior inside tissue culture wells in a microtiter plate format. The technology features in the integration of molecular and cell biology with microelectronics and is based on the electronic detection of biological assay process.\nFor measurement of cell-substrate or cell-electrode impedance using RT-CES technology, microelectrodes having appropriate geometries are fabricated onto the bottom surfaces of microtiter plate or similar device, facing into the wells. Cells are introduced into the wells of the devices, and make contact to and attach to the electrode surfaces. The presence, absence or change of properties of cells affects the electronic and ionic passage on the electrode sensor surfaces. Measuring the impedance between or among electrodes provides important information about biological status of cells present on the sensors. When there are changes to the biological status of the cells analogue electronic readout signals are measured automatically and in real time, and are converted to digital signals for processing and for analysis. In a RT-CES system, a cell index (arbitrary representation of change in impedance) is automatically derived and provided based on measured electrode impedance values. The cell index obtained for a given well reflects: 1) how many cells are attached to the electrode surfaces in this well; 2) how well cells are attached to the electrode surfaces in this well. Thus, the more the cells of same type in similar physiological conditions attach the electrode surfaces, the larger the cell index. And, the better the cells attach to the electrode surfaces (e.g., the cells spread-out more to have larger contact areas, or the cells attach tighter to electrode surfaces), the larger the cell index.\nTo quantify cell status based on the measured cell-electrode impedance, a parameter termed Cell Index is derived. Cell Index is a quantitative measure of the status of the cells in an electrode-containing well. Under the same physiological conditions, more cells attached on to the electrodes leads to larger cell-electrode resistance value, leading to a larger value for Cell Index. Furthermore, for the same number of cells present in the well, a change in the cell status such as morphology will lead to a change in the Cell Index. […]\nThe efficacy of these compounds was also tested against KB200 cell over-expressing multiple drug resistant (MDR) gene. […] The cell status was monitored prior to and after the compound addition using xCelligence system (Roche). […]"}, "[2]": {"test_system": "KB cells (parental cervical cancer cell line)", "assay": "Inhibition of cell proliferation, xCelligence cell index", "assay_type": "cell-based", "settings": "Homo sapiens, 72 hr post compound treatment, read-out: calculated IC50", "quoted_text": "as §2\nFor measurement of cell-substrate or cell-electrode impedance using RT-CES technology, microelectrodes having appropriate geometries are fabricated onto the bottom surfaces of microtiter plate or similar device, facing into the wells. Cells are introduced into the wells of the devices, and make contact to and attach to the electrode surfaces. The presence, absence or change of properties of cells affects the electronic and ionic passage on the electrode sensor surfaces. Measuring the impedance between or among electrodes provides important information about biological status of cells present on the sensors. When there are changes to the biological status of the cells analogue electronic readout signals are measured automatically and in real time, and are converted to digital signals for processing and for analysis. In a RT-CES system, a cell index (arbitrary representation of change in impedance) is automatically derived and provided based on measured electrode impedance values. The cell index obtained for a given well reflects: 1) how many cells are attached to the electrode surfaces in this well; 2) how well cells are attached to the electrode surfaces in this well. […]\nTo quantify cell status based on the measured cell-electrode impedance, a parameter termed Cell Index is derived. Cell Index is a quantitative measure of the status of the cells in an electrode-containing well. […]\nThe parental cervical cancer cell line, KB cells were first tested. […] The cell status was monitored prior to and after the compound addition using xCelligence system (Roche). […]"}, "[3]": {"test_system": "tubulin (vinblastine-binding site)", "assay": "Spin column assay with [^3H]vinblastine", "settings": "tubulin with [^3H]vinblastine and unlabeled competitor, 37° C. 1 h", "description": "(§1) Spin column assay. […] The reaction mixtures were incubated at 37° C. for 1 h. The samples were loaded onto Illustra™ MicroSpin™ G-50 columns (GE Healthcare) previously equilibrated with the buffer solution. The columns were placed into 1.5-ml tubes and spun at 750 g for 2 min at room temperature, and radioactivity in the flow-through was analyzed by a scintillation counter."}, "[4]": {"test_system": "tubulin (colchicine-binding site)", "assay": "Spin column assay with [^3H]colchicine", "settings": "tubulin with [^3H]colchicine and unlabeled competitor, 37° C. 1 h", "description": "as §1"}},
  "data": [
    {"smiles": "CC[C@]1(O)C[C@@H]2CN(CCc3c([nH]c4ccccc34)[C@@](C(=O)OC)(c3cc4c(cc3OC)N(C)[C@H]3[C@@](O)(C(=O)OC)[C@H](OC(C)=O)[C@]5(CC)C=CCN6CC[C@]43[C@@H]65)C2)C1", "note": "[vinblastine, reference compound]", "values": [
      {"measurement": "IC50", "setting": "[1]", "result": 135, "unit": "nM"},
      {"measurement": "IC50", "setting": "[2]", "result": 4.74, "unit": "nM"},
      {"measurement": "amount of [^3H]vinblastine in the flow-through", "setting": "[3]", "result": "reduced the amount of [^3H]vinblastine found in the flow-through in a concentration-dependent manner"},
      {"measurement": "amount of [^3H]colchicine in the flow-through", "setting": "[4]", "result": "did not influence the amount of [^3H]colchicine in the flow-through"}
    ]}
  ]
}
